Legend:
Huh-7 = experiment: Cytotoxicity in human HuH7 cells assessed as reduction in cell viability incubated for 72 hrs by cell-titer Glo asay; type: functional, cell-based; details: Huh-7, 72 h
Hep 3B2 = experiment: Cytotoxicity in human Hep3B cells assessed as reduction in cell viability incubated for 72 hrs by cell-titer Glo asay; type: functional, cell-based
HepG2 [1] = experiment: Cytotoxicity in human HepG2 cells assessed as reduction in cell viability incubated for 72 hrs by cell-titer Glo asay; type: functional, cell-based; details: HepG2, 72 h
PC-3 [2] = experiment: Cytotoxicity in human PC3 cells assessed as reduction in cell viability incubated for 48 hrs by SRB assay; type: functional, cell-based; details: PC-3, 48 h
HL-60 [3] = experiment: Cytotoxicity in human HL60 cells assessed as reduction in cell viability incubated for 24 hrs by MTT assay; type: functional, cell-based; details: HL-60, 24 h
MCF7 [4] = experiment: Cytotoxicity in human MCF7 cells assessed as reduction in cell viability incubated for 48 hrs by SRB assay; type: functional, cell-based; details: MCF7, 48 h
A549 [5] = experiment: Cytotoxicity in human A549 cells assessed as reduction in cell viability incubated for 48 hrs by SRB assay; type: functional, cell-based; details: A549, 48 h
A549 [6] = experiment: Cytotoxicity in human A549 cells assessed as reduction in cell viability incubated for 96 hrs by SRB assay; type: functional, cell-based; details: A549, 96 h
HT-29 [7] = experiment: Cytotoxicity in human HT-29 cells assessed as reduction in cell viability incubated for 96 hrs by SRB assay; type: functional, cell-based; details: HT-29, 96 h
NIH3T3 = experiment: Cytotoxicity in mouse NIH/3T3 cells assessed as reduction in cell viability incubated for 96 hrs by SRB assay; type: cell-based; details: NIH3T3, 96 h
MCF7 [8] = experiment: Cytotoxicity in human MCF7 cells assessed as reduction in cell viability; type: functional, cell-based
HepG2 [9] = experiment: Cytotoxicity in human HepG2 cells assessed as reduction in cell viability; type: functional, cell-based
BGC-823 [10] = experiment: Cytotoxicity in human BGC823 cells assessed as reduction in cell viability incubated for 72 hrs by MTT assay; type: functional, cell-based; details: BGC-823, 72 h
PC-3 [11] = experiment: Cytotoxicity in human PC3 cells assessed as reduction in cell viability incubated for 72 hrs by MTT assay; type: functional, cell-based; details: PC-3, 72 h
HMEC = experiment: Cytotoxicity in human HMEC cells assessed as reduction in cell viability incubated for 48 hrs by SRB assay; type: cell-based
4T1 = experiment: Cytotoxicity in mouse 4T1 cells assessed as reduction in cell viability incubated for 24 hrs by MTT assay; type: functional, cell-based; details: 4T1, 24 h
MDA-MB-231 [12] = experiment: Cytotoxicity in human MDA-MB-231 cells assessed as reduction in cell viability incubated for 24 hrs by MTT assay; type: functional, cell-based; details: MDA-MB-231, 24 h
MCF7 [13] = experiment: Cytotoxicity in human MCF7 cells assessed as reduction in cell viability incubated for 24 hrs by MTT assay; type: functional, cell-based; details: MCF7, 24 h
ASPC1 = experiment: Growth inhibition of human AsPC1 cells incubated for 72 hrs by MTT assay; type: functional, cell-based; details: ASPC1, 72 h
AGS [14] = experiment: Antiproliferative activity in human AGS cells incubated for 3 days by MTT assay; type: functional, cell-based; details: 72 h
HeLa [15] = experiment: Cytotoxicity in human HeLa cells assessed as reduction in cell viability incubated for 72 hrs by MTT assay; type: functional, cell-based
MCF7 [16] = experiment: Cytotoxicity in human MCF7 cells assessed as reduction in cell viability incubated for 72 hrs by MTT assay; type: functional, cell-based; details: MCF7, 72 h
HT-29 [17] = experiment: Cytotoxicity in human HT-29 cells assessed as reduction in cell viability incubated for 72 hrs by MTT assay; type: functional, cell-based; details: HT-29, 72 h
BJ = experiment: Cytotoxicity in human BJ cells assessed as reduction in cell viability incubated for 72 hrs by MTT assay; type: functional, cell-based
HeLa [18] = experiment: Cytotoxicity in human HeLa cells assessed as reduction in cell viability incubated for 48 hrs by MTT assay; type: functional, cell-based
BGC-823 [19] = experiment: Cytotoxicity in human BGC823 cells assessed as reduction in cell viability incubated for 48 hrs by MTT assay; type: functional, cell-based; details: BGC-823, 48 h
HepG2 [20] = experiment: Cytotoxicity in human HepG2 cells assessed as reduction in cell viability incubated for 48 hrs by MTT assay; type: functional, cell-based; details: HepG2, 48 h
A549 [21] = experiment: Potency index, ratio of IC50 for Iressa to IC50 for test compound for cytotoxicity in human A549 cells assessed as reduction in cell viability incubated for 24 hrs by MTT assay; type: functional
A549 [22] = experiment: Cytotoxicity in human A549 cells assessed as reduction in cell viability incubated for 24 hrs by MTT assay; type: functional, cell-based; details: A549, 24 h
MDA-MB-231 [23] = experiment: Inhibition of cell invasion in human MDA-MB-231 cells; type: functional
MDA-MB-231 [24] = experiment: Antiproliferative activity in human MDA-MB-231 cells assessed as reduction in cell viability incubated for 24 to 72 hrs by MTT assay; type: functional, cell-based
[25] = Cytotoxicity in human A375-S2 cells assessed as reduction in cell viability incubated for 48 hrs by MTT assay; type: functional, cell-based; details: A375-S2, 48 h
PC-3 [26] = experiment: Cytotoxicity in human PC3 cells assessed as reduction in cell viability incubated for 48 hrs by XTT assay; type: functional, cell-based; details: PC-3, 48 h
COLO 205 = experiment: Cytotoxicity in human COLO205 cells assessed as reduction in cell viability incubated for 72 hrs by MTT assay; type: functional, cell-based; details: COLO 205, 72 h
Bel-7402 = experiment: Cytotoxicity in human Bel7402 cells assessed as reduction in cell viability incubated for 72 hrs by MTT assay; type: functional, cell-based; details: Bel-7402, 72 h
H4 = experiment: Cytotoxicity in human H4 cells assessed as reduction in cell viability incubated for 72 hrs by MTT assay; type: functional, cell-based; details: H4, 72 h
[27] = Cytotoxicity in human BCP-ALL cells assessed as reduction in cell viability; type: functional, cell-based
Daudi = experiment: Cytotoxicity in human Daudi cells assessed as reduction in cell viability; type: functional, cell-based
NCI-H1299 = experiment: Cytotoxicity in human NCI-H1299 cells assessed as reduction in cell viability; type: functional, cell-based
T-ALL = experiment: Cytotoxicity in human T-ALL cells assessed as reduction in cell viability; type: functional, cell-based
HL-60 [28] = experiment: Cytotoxicity in human HL60 cells assessed as reduction in cell viability; type: functional, cell-based
[29] = Cytotoxicity in human […] cells assessed as reduction in cell viability incubated for 72 hrs by MTT assay; type: functional, cell-based
AGS [30] = experiment: Cytotoxicity in human AGS cells assessed as reduction in cell viability incubated for 24 hrs by MTT assay; type: functional, cell-based
[31] = Cytotoxicity in human HELF cells assessed as reduction in cell viability incubated for 24 hrs by MTT assay; type: cell-based
MDA-MB-231 [32] = experiment: Cytotoxicity in human MDA-MB-231 cells assessed as reduction in cell viability incubated for 48 hrs by SRB assay; type: functional; details: MDA-MB-231, 48 h

CC1=C(O)C(=O)C=C2C1=CC=C1[C@@]2(C)CC[C@@]2(C)[C@@H]3C[C@](C)(C(=O)OCc4ccccc4)CC[C@]3(C)CC[C@]12C
IC50 (Huh-7): 2.15 µM
IC50 (Hep 3B2): 2.77 µM
IC50 (HepG2 [1]): 4.26 µM

CCC(=O)O[C@H]1CC[C@@]2(C)[C@@H](CC[C@]3(C)[C@@H]2CC=C2[C@@H]4[C@@H](C)[C@H](C)CC[C@]4(C)CC[C@]23C)[C@@]1(C)C(=O)O
IC50 (PC-3 [2]): 31 µM
IC50 (HL-60 [3]): 14 µM
IC50 (MCF7 [4]): 29 µM
IC50 (A549 [5]): 29 µM

COC(=O)[C@]12CCC(C)(C)C[C@H]1C1=CC[C@@H]3[C@@]4(C)C[C@@H](O)[C@H](OS(N)(=O)=O)C(C)(C)[C@@H]4CC[C@@]3(C)[C@]1(C)CC2
IC50 (A549 [6]): 4 µM
IC50 (HT-29 [7]): 3.5 µM
IC50 (NIH3T3): 2.2 µM

CC(=O)O/N=C1\CC[C@]2(C)[C@H]3CC=C4[C@@H]5[C@@H](C)[C@H](C)CC[C@]5(C(=O)O)CC[C@@]4(C)[C@]3(C)CC[C@H]2C1(C)C
IC50 (MCF7 [8]): 3.4 µM
IC50 (HepG2 [9]): 4.3 µM

CCCC(=O)O[C@H]1CC[C@]2(C)[C@H]3CC=C4[C@@H]5CC(C)(C)CC[C@]5(C(=O)n5ccc(=O)[nH]c5=O)CC[C@@]4(C)[C@]3(C)CC[C@H]2C1(C)C
IC50 (BGC-823 [10]): 0.22 µM
IC50 (PC-3 [11]): 0.28 µM

CC(=O)Oc1ccccc1C(=O)O[C@H]1CC[C@]2(C)[C@H]3CC=C4[C@@H]5[C@@H](C)[C@H](C)CC[C@]5(C(=O)O)CC[C@@]4(C)[C@]3(C)CC[C@H]2C1(C)C
IC50 (HMEC): > 100 µM
IC50 (4T1): 62 µM
IC50 (MDA-MB-231 [12]): 63.9 µM
IC50 (MCF7 [13]): 72.2 µM

COC(=O)[C@]12CCC(C)(C)C[C@H]1C1=CC[C@@H]3[C@@]4(C)C/C(=C/n5ccnc5)C(=O)C(C)(C)[C@@H]4CC[C@@]3(C)[C@]1(C)CC2
IC50 (ASPC1): < 5 µM

CC1(C)CC[C@]2(C(=O)O)CC[C@]3(C)C(=CC[C@@H]4[C@@]5(C)CC[C@H](OC(=O)CCc6cn(-c7ccc(Cl)cc7)nn6)C(C)(C)[C@@H]5CC[C@]43C)[C@@H]2C1
IC50 (AGS [14]): 8.9 µM

COC(=O)[C@]12CC[C@@H](C)[C@H](C)[C@H]1C1=CC(=O)[C@@H]3[C@@]4(C)C(C=O)=C[C@@](C)(CO)[C@@H]4CC[C@@]3(C)[C@]1(C)CC2
IC50 (HeLa [15]): 0.3 µM
IC50 (MCF7 [16]): 0.74 µM
IC50 (HT-29 [17]): 0.59 µM
IC50 (BJ): 3.33 µM

CC(=O)O/N=C1\CC[C@]2(C)[C@H]3CC=C4[C@@H]5[C@@H](C)[C@H](C)CC[C@]5(C(=O)Nc5ccccc5)CC[C@@]4(C)[C@]3(C)CC[C@H]2C1(C)C
IC50 (HeLa [18]): 9.3 µM
IC50 (BGC-823 [19]): 8.1 µM
IC50 (HepG2 [20]): 21.2 µM

CC(=O)O/N=C1\CC[C@]2(C)[C@H]3CC=C4[C@@H]5[C@@H](C)[C@H](C)CC[C@]5(C(=O)Nc5ccccc5C(=O)O)CC[C@@]4(C)[C@]3(C)CC[C@H]2C1(C)C
IC50 (HeLa [18]): 13.8 µM
IC50 (BGC-823 [19]): 9.2 µM
IC50 (HepG2 [20]): 23.7 µM

CC1(C)CC[C@]2(C(=O)O)CC[C@]3(C)C(=CC[C@@H]4[C@@]5(C)CC[C@H](O[C@@H]6OC[C@H](O)[C@H](O[C@H]7O[C@H](CO)[C@@H](O)[C@H](O)[C@@H]7O)[C@H]6O)[C@@](C)(CO)[C@@H]5CC[C@]43C)[C@H]2C1
Ratio IC50 (A549 [21]): 4
IC50 (A549 [22]): 6.6 µM
IC50 (MCF7 [13]): 19.3 µM

CC1=C(O)C(=O)C=C2C1=CC=C1[C@@]2(C)CC[C@@]2(C)[C@@H]3C[C@](C)(C(=O)NCCc4ccccc4)CC[C@]3(C)CC[C@]12C
IC50 (Huh-7): 1.04 µM
IC50 (Hep 3B2): 1.06 µM
IC50 (HepG2 [1]): 3.58 µM

CC1(C)CC[C@]2(C(=O)O)CC[C@]3(C)C(=CC[C@@H]4[C@@]5(C)CC[C@H](OC(=O)NS(=O)(=O)c6ccc(F)cc6)C(C)(C)[C@@H]5CC[C@]43C)[C@@H]2C1
inhibition (INH) (MDA-MB-231 [23]): 72.5%
IC50 (MDA-MB-231 [24]): 3.4 µM

COC(=O)[C@]12CC[C@@H](C)[C@H](C)[C@H]1C1=CC(=O)[C@@H]3[C@@]4(C)C(C=O)=C[C@@](C)(COS(C)(=O)=O)[C@@H]4CC[C@@]3(C)[C@]1(C)CC2
IC50 (HeLa [15]): 0.24 µM
IC50 (MCF7 [16]): 0.65 µM
IC50 (HT-29 [17]): 0.59 µM
IC50 (BJ): 2.43 µM

CC1(C)CC[C@]2(C(=O)OCc3cn(-c4ccc([N+](=O)[O-])cc4)nn3)CC[C@]3(C)C(=CC[C@@H]4[C@@]5(C)CCC(=O)C(C)(C)[C@@H]5CC[C@]43C)[C@@H]2C1
IC50 [25]: < 3 µM

C[C@H]1[C@H](C)CC[C@]2(C)CC[C@]3(C)C(=CC(=O)[C@@H]4[C@@]5(C)CC[C@H](OC(=O)/C=C/c6ccccc6)[C@](C)(C(=O)O)[C@@H]5CC[C@]43C)[C@H]12
IC50 (PC-3 [26]): 3.6 µM

CC(=O)Oc1cc2c(c(C)c1OC(C)=O)C(S(=O)(=O)O)C=C1C2(C)CC[C@@]2(C)[C@@H]3C[C@](C)(C(=O)O)CC[C@]3(C)CC[C@]12C (single isomer, unassigned)
IC50 (COLO 205): 0.06 µM
IC50 (Bel-7402): 1.73 µM
IC50 (H4): 1.37 µM

CC1=C(O)C(=O)C=C2C1=CC=C1[C@@]2(C)CC[C@@]2(C)[C@@H]3C[C@](C)(C(=O)O)CC[C@]3(C)CC[C@]12C [CELASTROL]
IC50 [27]: < 1 µM
IC50 (Daudi): < 1 µM
IC50 (NCI-H1299): < 1 µM
IC50 (T-ALL): < 1 µM
IC50 (HL-60 [28]): < 1 µM

C[C@H]1[C@H](C)CC[C@]2(C(=O)O)CC[C@]3(C)C(=CC[C@@H]4[C@@]5(C)CC[C@H](O)C(C)(C)[C@@H]5CC[C@]43C)[C@H]12 [URSOLIC ACID]
IC50 (HMEC): 39.3 µM
IC50 [29]: 26.5 µM
GI50 (MCF7 [4]): 21 µM
IC50 (AGS [30]): 43.3 µM
IC50 [31]: 21.3 µM
GI50 (MDA-MB-231 [32]): 11.1 µM
